From article PMC10628242, “Enzymatic β-elimination in natural product O- and C-glycoside deglycosylation” (Nature Communications, 2023)

Molecular target: T1, PuCGE (human intestinal bacterium PUE, UniProt A0A3Q9WUX0+A0A3Q9WXL1, A0A3Q9WUX0:Y39F)
T1 construct: gene dgpC; heterodimer alpha (39,205 Da) + beta (18,313 Da), co-expressed from pET-Duet-1 in E. coli; N-terminal Strep-tag II; Mn2+ enzyme
T1 sequence (A0A3Q9WXL1 1-324): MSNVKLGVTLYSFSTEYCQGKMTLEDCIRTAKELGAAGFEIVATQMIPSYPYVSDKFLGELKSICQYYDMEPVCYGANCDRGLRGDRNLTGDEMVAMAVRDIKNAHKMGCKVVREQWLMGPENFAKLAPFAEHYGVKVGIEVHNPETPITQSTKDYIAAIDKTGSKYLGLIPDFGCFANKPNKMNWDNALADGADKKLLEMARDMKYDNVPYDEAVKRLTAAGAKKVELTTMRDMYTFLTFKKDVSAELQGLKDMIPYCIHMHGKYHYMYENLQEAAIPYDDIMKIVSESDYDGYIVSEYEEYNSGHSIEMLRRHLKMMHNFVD
T1 sequence (A0A3Q9WUX0 1-142 Y39F): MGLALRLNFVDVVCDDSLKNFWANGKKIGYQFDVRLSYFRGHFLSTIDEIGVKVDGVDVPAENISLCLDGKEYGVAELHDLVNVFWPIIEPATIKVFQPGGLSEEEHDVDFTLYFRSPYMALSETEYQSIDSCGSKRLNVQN
Test: HPLC of aglycone release
Type: biochemical
Conditions: 2.0 mM substrate; potassium phosphate pH 6.0, 37 °C; text puts Tyr39 in beta, plasmid name puts Y39F on alpha

## O=C(CCc1ccc(O)cc1)c1c(O)cc(O)cc1O[C@@H]1O[C@H](CO)[C@@H](O)C(=O)[C@H]1O [3-keto-phlorizin, 3,5-dihydroxy-2-[3-(4-hydroxyphenyl)-1-oxopropyl]phenyl β-D-ribo-hexopyranosid-3-ulose]
  HPLC of aglycone release: The mutated PuCGE exhibits only a minor loss of 3-keto-phlorizin activity
